How the values were obtained:
Raw 264.7 cells = experiment: Light-triggered release of FDA from nanoparticles, cell fluorescence (imaging, plate reader); type: cell-based; conditions: UV irradiation, free FDA
Experimental: The dye selected for these studies was Fluorescein Diacetate (FDA), which is an ester of fluorescein. […] Nanoparticles containing FDA were formulated through an inverse emulsion/solvent evaporation process. […] The resulting solution was added to a larger volume of 1% solution of polyvinyl alcohol (PVA) and probe sonicated to form the emulsion. The organic solvent was then evaporated under vacuum, and PVA removed by tangential flow ultrafiltration. The resulting solution was then freeze-dried with mannitol as cryoprotectant. The resulting particles were characterized by dynamic light scattering (DLS) and scanning electron microscopy (SEM). The encapsulation efficiency was evaluated by liquid-liquid extraction of FDA from particles and fluorescence measurements. […] As a more quantitative assay, we measured the amount of fluorescence of the cells using a plate reader (same cell count in each well). […] FIG. 4 is a bar graph showing the measured fluorescence for irradiated and non-irradiated Raw 264.7 cells. The cells in irradiated wells show higher fluorescence due to triggered release of payload (dark bars) as compared to cells in non-irradiated wells (light bars). […] We found an 18-fold increase in fluorescence upon irradiation as compared to the non-irradiated control in Raw 264.7 macrophage cell line, as well as a 3-fold increase upon irradiation in retinal cell line.

[1] = Visual and microscopic inspection of the eye after intra-vitreous injection; type: in vivo, Sprague-Dawley albino rats; conditions: compared with PBS buffer (left eye)
Experimental: WO2011/038117. Initial in vivo testing on a rat model (Sprague-Dawley albino rats) was performed to determine the biocompatibility of the empty polymer particles without encapsulated cargo. This involved intra-vitreous injection of different concentrations of the light-degradable particles (“NP low” and “NP high” test categories in FIG. 2A) as well as different concentrations of nanoparticles composed of a known biocompatible material (PLGA). In each animal, the test material was injected into the right eye while a phosphate buffered solution (PBS) was injected into the left eye as a negative control. Additionally, animals were administered nanoparticle solutions that had previously been irradiated with UV light (˜350 nm) to determine any deleterious effects of the degradation byproducts (“NP low+UV” and “NP high+UV”.) Lipopolysaccharide (LPS) was injected in another group as a positive control as it is known to cause inflammation. […] FIG. 2A illustrates the intra-ocular pressure (IOP) data for these tests, with each group of bars, with the bars proceeding from left to right in the figure, corresponding to pre-operative IOP, drug (nanoparticle) day 1, PBS at day 1 after injection, drug (nanoparticle) day 4 after injection, PBS day 4, drug day 5, PBS day 5 etc. up to day 7 after injection. […] Second, the intra-ocular pressure was measured daily. […]

| Compound | bleaching of FDA by irradiation (Raw 264.7 cells) | visual and microscopic inspection of the eye [1] |
| --- | --- | --- |
| CC(=O)Oc1ccc2c(c1)Oc1cc(OC(C)=O)ccc1C21OC(=O)c2ccccc21 [FDA, Fluorescein Diacetate] | does not cause significant bleaching | – |
| Lipopolysaccharide [LPS] | – | caused tearing |

From patent US20150119792A1, “LIGHT DEGRADABLE DRUG DELIVERY SYSTEM FOR OCULAR THERAPY” (priority 2012, published 2015)
